Usually logP stands for a log measure of how a compound divides between an organic and an aqueous phase. Read a low logP as lower lipophilicity.

Each structure is given as a SMILES string.

In patent US20100285957A1, “THIAZOLYLOXYPHENYLAMIDINES OR THIADIAZOLYLOXYPHENYLAMIDINES AND THEIR USE AS FUNGICIDES” (Bayer CropScience AG, priority 2007, published 2010) one finds pest or weed control, degree of effectiveness and logP data, which are given here for one molecule.

Data set [1] concerns Uromyces appendiculatus. As to the kind of experiment: Uromyces test (beans)/protective. In kind it is in vivo. As to conditions: 240 h, 100 ppm active substance, protective, evaluation 10 days after inoculation, read-out: degree of effectiveness. The gist of the method:
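Young bean plants were sprayed with the formulated compound at the stated application rate, dried, then inoculated with U. appendiculatus spores. They were held 1 day at ~20 °C and 100% RH, then in a greenhouse at ~21 °C and ~90% RH. Efficacy was scored 10 days post-inoculation: 0% equals the control, 100% means no infestation.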

The test system of data set [2] is Pyrenophora teres. The experiment in a line: Pyrenophora teres test (barley)/protective. The data set is classed as in vivo. Particulars: 500 ppm active substance, protective, evaluation 7-9 days after inoculation, read-out: degree of effectiveness.
Data set [3] concerns Sphaerotheca fuliginea. As to the kind of experiment: Sphaerotheca test (cucumber)/protective. In kind it is in vivo. As to conditions: Podosphaera fuliginea, 168 h, 100 ppm active substance, protective, evaluation 7 days after inoculation, read-out: degree of effectiveness. The gist of the method: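 Young cucumber plants were sprayed protectively with the formulated compound at the stated rate, dried, then inoculated with S. fuliginea spores. Kept in greenhouse at ~23° C. and ~70% relative humidity; efficacy scored 7 days post-inoculation (0% = untreated control, 100% = no infestation).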

The test system of data set [4] is Alternaria solani. As to the kind of experiment: Alternaria test (tomato)/protective. The data set is classed as in vivo. As to conditions: 168 h, 500 ppm active substance, protective, evaluation 7 days after inoculation, read-out: degree of effectiveness. The gist of the method:
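Young tomato plants sprayed with emulsified active substance at the stated rate, inoculated 1 day later with Alternaria solani spores. Held 24 h at 100% RH and 20 °C, then 96% RH, 20 °C. Scored 7 days post-inoculation; 0% = untreated control, 100% = no infestation.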

The subject of data set [5] is Cochliobolus miyabeanus. The experiment in a line: Cochliobolus test (rice)/protective. The data set is classed as in vivo. As to conditions: 250 ppm active substance, protective, evaluation 4 days after inoculation. On the procedure: Cochliobolus Test (Rice)/Protective
(§1) To prepare a suitable active substance composition, 1 part by weight of active substance is mixed with the given amounts of solvent and emulsifier and the concentrate is diluted to the desired concentration using water.
For the testing of protective effectiveness, young plants are sprayed with the active substance composition in the application rate given. After the spray coating has been dried on, the plants are inoculated with an aqueous suspension of the spores of Cochliobolus miyabeanus and then remain in an incubation chamber at approximately 25° C. and 100% relative humidity for 1 day.
Evaluation is carried out 4 days after the inoculation. In this connection, 0% means a degree of effectiveness corresponding to that of the control, while a degree of effectiveness of 100% means that no infestation is observed.

A short description of data set [6]: physchem. As to conditions: pH 2.3.
For data set [7], the system named is Phakopsora pachyrhizi. The experiment in a line: Phakopsora test (soya)/protective. In kind it is in vivo. As to conditions: 264 h, 100 ppm active substance, protective, evaluation 11 days after inoculation, read-out: degree of effectiveness. On the procedure: Phakopsora Test (Soya)/Protective
as §1
For the testing of protective effectiveness, young plants are sprayed with the active substance composition in the application rate given. After the spray coating has been dried on, the plants are inoculated with an aqueous suspension of the spores of Phakopsora pachyrhizi and then remain in an incubation chamber at approximately 20° C. and 80% relative humidity for 1 day.
Evaluation is carried out 11 days after the inoculation. In this connection, 0% means a degree of effectiveness corresponding to that of the control, while a degree of effectiveness of 100% means that no infestation is observed.

In the case of `CCN(C)C=Nc1cc(C)c(Oc2nc(C3(C)CC3(Cl)Cl)ns2)cc1C` (stereo not shown) [Compound 25, N′-(4-{[3-(2,2-Dichloro-1-methylcyclopropyl)-1,2,4-thiadiazol-5-yl]oxy}-2,5-dimethylphenyl)-N-ethyl-N-methylimidoformamide], the figures for the pest or weed control at 100 ppm in data set [1], in data set [3] and in data set [7] were at least 70%, at least 70% and at least 80%, respectively. The pest or weed control at 500 ppm in data set [2] and in data set [4] was at least 70% throughout. In data set [5], this molecule yielded a degree of effectiveness of at least 80%. In addition, in data set [6], the logP turned out to be 2.03.
